Measured values reported in ChEMBL document CHEMBL1130331, “Synthesis and hepatoprotective effects of soyasapogenol B derivatives” (1997).

What was measured:
HepG2 [1] = assay: Tested in vitro for hepatoprotective effect of 10 ug/ml of compound on cell growth and lesions in Hep G2 cells treated with aflatoxin B1 (10 e -5 M); assay type: functional, Homo sapiens
HepG2 [2] = assay: Tested in vitro for hepatoprotective effect of 20 ug/ml of compound on cell growth and lesions in Hep G2 cells treated with aflatoxin B1 (10 e -5 M); assay type: functional, Homo sapiens

Compound | Protection (HepG2 [1]) [%] | Protection (HepG2 [2]) [%]
CC(=O)O[C@H]1CC[C@@]2(C)C(CC[C@]3(C)C2CC=C2[C@@H]4CC(C)(C)C[C@@H](O)[C@]4(C)CC[C@]23C)[C@@]1(C)CO (stereo partly drawn) | 0 | –
CC1(C)C[C@@H](O)[C@]2(C)CC[C@]3(C)C(=CCC4[C@@]5(C)CC[C@H](O)[C@](C)(CO)C5CC[C@]43C)[C@@H]2C1 (stereo partly drawn) | 14 | –
CC1(C)[C@@H](O[C@H]2O[C@H](C(=O)O)[C@@H](O)[C@H](O)[C@H]2O[C@@H]2O[C@H](C(=O)O)[C@@H](O)[C@H](O)[C@H]2O)CC[C@]2(C)[C@H]3C(=O)C=C4[C@@H]5C[C@@](C)(C(=O)O)CC[C@]5(C)CC[C@@]4(C)[C@]3(C)CC[C@@H]12 [GLYCYRRHIZIN] | – | 15
CC(=O)OC[C@]1(C)C2CC[C@]3(C)C(CC=C4[C@@H]5CC(C)(C)C[C@@H](O)[C@]5(C)CC[C@]43C)[C@@]2(C)CC[C@@H]1O (stereo partly drawn) | 45 | –
CC1(C)C[C@@H](O)[C@]2(C)CC[C@]3(C)C(=CCC4[C@@]5(C)CC[C@H](O)C(C)(C)C5CC[C@]43C)[C@@H]2C1 (stereo partly drawn) | 19 | –
CC1(C)C[C@@H](O)[C@]2(C)CC[C@]3(C)C(=CCC4[C@@]5(C)CC[C@H](O)[C@](C)(C(=O)O)C5CC[C@]43C)[C@@H]2C1 (stereo partly drawn) | 44 | –
CC(=O)O[C@@H]1CC(C)(C)C[C@H]2C3=CCC4[C@@]5(C)CC[C@H](O)[C@](C)(CO)C5CC[C@@]4(C)[C@]3(C)CC[C@@]12C (stereo partly drawn) | 11 | –
COC[C@]1(C)C2CC[C@]3(C)C(CC=C4[C@@H]5CC(C)(C)C[C@@H](O)[C@]5(C)CC[C@]43C)[C@@]2(C)CC[C@@H]1O (stereo partly drawn) | 48 | –
CO[C@@H]1CC(C)(C)C[C@H]2C3=CCC4[C@@]5(C)CC[C@H](O)[C@](C)(CO)C5CC[C@@]4(C)[C@]3(C)CC[C@@]12C (stereo partly drawn) | 9 | –
CC1(C)CC[C@]2(C)CC[C@]3(C)C(=CCC4[C@@]5(C)CC[C@H](O)[C@](C)(CO)C5CC[C@]43C)[C@@H]2C1 (stereo partly drawn) | 33 | –
CC1(C)C[C@@H](O)[C@]2(C)CC[C@]3(C)C(=CCC4[C@@]5(C)CC[C@H](O)[C@](C)(C=O)C5CC[C@]43C)[C@@H]2C1 (stereo partly drawn) | 32 | –
CO[C@H]1CC[C@@]2(C)C(CC[C@]3(C)C2CC=C2[C@@H]4CC(C)(C)C[C@@H](O)[C@]4(C)CC[C@]23C)[C@@]1(C)CO (stereo partly drawn) | 2 | –
CC1(C)C[C@@H](O)[C@]2(C)CC[C@]3(C)C(=CCC4[C@@]5(C)CCC[C@](C)(CO)C5CC[C@]43C)[C@@H]2C1 (stereo partly drawn) | 0 | –
